Data on 38 compounds can be found in patent US10059704B2, “1,4-disubstituted 1,2,3-triazoles, methods for preparing same, and diagnostic and therapeutic uses thereof” (CENTRE NATIONAL DE LA RECHERCHE SCIENTIFIQUE (C.N.R.S.), priority 2011, dated 2018).

Read-outs that look alike come from different tables or passages of the source.

For one series, the target named is nicotinic receptors Rα7 (Rattus norvegicus, UniProt Q05941). The experiment in a line: biochemical. It counts as binding.
The mark [1] stands for this setting: rat frontal cortex membranes, [125I]α-bungarotoxin 2 nM, 22° C., 3 hours, Ki calculated from IC50 (Cheng and Prussof), read-out: Activity on Rα7.

Chain of nicotinic receptors Rα7 (Q05941 23-502): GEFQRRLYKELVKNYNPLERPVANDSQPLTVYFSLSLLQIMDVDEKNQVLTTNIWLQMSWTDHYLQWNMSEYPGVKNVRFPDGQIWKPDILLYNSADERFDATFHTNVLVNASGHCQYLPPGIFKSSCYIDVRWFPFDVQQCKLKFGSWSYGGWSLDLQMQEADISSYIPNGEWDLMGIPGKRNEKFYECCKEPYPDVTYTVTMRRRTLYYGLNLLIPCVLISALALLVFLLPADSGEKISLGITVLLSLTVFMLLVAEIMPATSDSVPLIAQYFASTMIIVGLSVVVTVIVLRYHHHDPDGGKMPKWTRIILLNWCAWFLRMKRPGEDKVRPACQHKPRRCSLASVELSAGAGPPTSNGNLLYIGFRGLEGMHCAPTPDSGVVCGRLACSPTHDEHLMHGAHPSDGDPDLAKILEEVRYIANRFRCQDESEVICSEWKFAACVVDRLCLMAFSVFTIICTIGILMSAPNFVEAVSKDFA

In turn, `FC1(c2cn(-c3ccc(Br)cc3)nn2)CN2CCC1CC2` (stereo not shown) [Compound 71, 3-Fluoro-3-(1-(4-bromophenyl)-1H-1,2,3-triazol-4-yl)quinuclidine] registered a melting point of 127 °C. Besides, at nicotinic receptors Rα7 (setting [1]), the Ki was 150 ± 10 nM. Regarding `c1csc(-c2ccc(-c3cn([C@H]4CN5CCC4CC5)nn3)cc2)c1` [Compound 96, (R)-3-[4-[4-(2-thienyl)phenyl]-1H-1,2,3-triazol-1-yl]quinuclidine], the melting point turned out to be 214 °C. For the same compound, the Ki at nicotinic receptors Rα7 was 135 nM. `c1cc2cc(-c3cn([C@H]4CN5CCC4CC5)nn3)ccc2s1` [Compound 55, (R)-3-(4 Benzo[b](thiophen-5-yl)-1H-1,2,3-triazol-1-yl) quinuclidine] had a melting point of 178 °C. The Ki on nicotinic receptors Rα7 (setting [1]) is 19 ± 1 nM.

As for `O=Cc1ccc(-c2cccc(-c3cn([C@H]4CN5CCC4CC5)nn3)c2)s1` [Compound 101, (R)-5-[3-[1-[quinuclidin-3-yl]-1H-1,2,3-triazol-4-yl]phenyl]thiophene-2-carbaldehyde], the melting point came out at 150 °C. The Ki on nicotinic receptors Rα7 came to 7 nM. For `OCc1ccc(-c2ccc(-c3cn([C@H]4CN5CCC4CC5)nn3)o2)cc1` [Compound 84, (R)-[4-[5-[1-[quinuclidin-3-yl]-1H-1,2,3-triazol-4-yl]-2-furyl]-phenyl]-methanol] the same measures were 209 °C and 6 nM. Turning to `c1coc(-c2ccc(-c3cn([C@H]4CN5CCC4CC5)nn3)s2)c1` [Compound 62, (R)-3-(4-(5-(Furan-2-yl)thiophen-2-yl)-1H-1,2,3-triazol-1-yl)quinuclidine], the melting point worked out at 180 °C. Moreover, the Ki at nicotinic receptors Rα7 (setting [1]) was 10 ± 1 nM. Turning to `Clc1ccc(-c2cn([C@H]3CN4CCC3CC4)nn2)cc1` [Compound 39, (R)-3-(4-(4-Chlorophenyl)-1H-1,2,3-triazol-1-yl)quinuclidine], the melting point was determined as 144 °C. Moreover, at nicotinic receptors Rα7 (setting [1]), the Ki is 8 ± 3 nM. For the compound `FCc1ccc(-c2cn([C@H]3CN4CCC3CC4)nn2)cc1` [Compound 58, (R)-3-(4-(4-(Fluoromethyl)phenyl)-1H-1,2,3-triazol-1-yl)quinuclidine], the melting point is 138 °C. Compound `OCc1ccc(-c2cccc(-c3cn([C@H]4CN5CCC4CC5)nn3)c2)s1` [Compound 115, (R)-[5-[3-[1-[quinuclidin-3-yl]-1H-1,2,3-triazol-4-yl]phenyl]-2-thienyl]-methanol] yielded a melting point of 176 °C. At nicotinic receptors Rα7, the Ki stood at 0.5 nM.

On to `c1ccc(-c2cn([C@H]3CN4CCC3CC4)nn2)cc1` [Compound 37, (R)-3-(4-Phenyl-1H-1,2,3-triazol-1-yl)quinuclidine], for which the melting point worked out at 132 °C. The Ki at nicotinic receptors Rα7 (setting [1]) was 8 ± 4 nM. In turn, `Fc1ccc(-c2cn([C@H]3CN4CCC3CC4)nn2)cn1` [Compound 51, (R)-3-(4-(6-fluoropyridin-3-yl)-1H-1,2,3-triazol-1-yl) quinuclidine] yielded a melting point of 147 °C. For the same compound, the Ki on nicotinic receptors Rα7 (setting [1]) was 469 ± 6 nM. In the case of `COc1cccc(-c2cn([C@H]3CN4CCC3CC4)nn2)c1` [Compound 47, (R)-3-(4-(3-Methoxyphenyl)-1H-1,2,3-triazol-1-yl)quinuclidine], the Ki on nicotinic receptors Rα7 (setting [1]) is 2.3 ± 1 nM. Take `OCc1ccc(-c2coc(-c3cn([C@H]4CN5CCC4CC5)nn3)c2)cc1` [Compound 90, (R)-[4-[5-[1-[quinuclidin-3-yl]-1H-1,2,3-triazol-4-yl]-3-furyl]phenyl]methanol]: the melting point turned out to be 202 °C. Also, the Ki on nicotinic receptors Rα7 is 9 nM. For `Fc1ccc(-c2cn([C@H]3CN4CCC3CC4)nn2)cc1` [Compound 42, (R)-3-(4-(4-Fluorophenyl)-1H-1,2,3-triazol-1-yl)quinuclidine], the melting point came out at 180 °C. Still for that read-out and setting: under `O=[N+]([O-])c1ccc(-c2cccc(-c3cn([C@H]4CN5CCC4CC5)nn3)c2)cn1` stands 180 °C; under `OC1(c2cn(-c3ccc(Br)cc3)nn2)CN2CCC1CC2` (stereo not shown), 214 °C.

Regarding `CN1CCN(Cc2cccc(-c3ccc(-c4cn([C@H]5CN6CCC5CC6)nn4)s3)c2)CC1`, the melting point was determined as 155 °C.

In turn, `Brc1ccc(-c2cn([C@H]3CN4CCC3CC4)nn2)o1` showed a melting point of 144 °C. For the compound `COc1ccccc1-c1cn([C@H]2CN3CCC2CC3)nn1` [Compound 48, (R)-3-(4-(2-Methoxyphenyl)-1H-1,2,3-triazol-1-yl)quinuclidine], the melting point turned out to be 120 °C. On the same count and under the same terms, then `Cl.ClCc1ccc(-c2ccc(-c3cn([C@H]4CN5CCC4CC5)nn3)s2)cc1`, with 255 °C. On the same count and under the same terms, then `c1ccc(-c2cn(C3CCCN4CCCCC34)nn2)cc1` (stereo not shown), with 150 °C; and `c1ccc(-c2ccc(-c3cn([C@H]4CN5CCC4CC5)nn3)s2)cc1`, with 184 °C; and `Fc1ccc(-c2ccc(-c3cn([C@H]4CN5CCC4CC5)nn3)s2)cn1` [Compound 87, (R)-3-[4-[5-(6-fluoro-3-pyridyl)-2-thienyl]-1H,1,2,3-triazol-1-yl]quinuclidine], with 163 °C. Still for that read-out and setting: then `Fc1ccc(-c2ccc(-c3cn([C@H]4CN5CCC4CC5)nn3)cc2)cn1`, with 181 °C. With `COc1ccc(-n2cc(C3(O)CN4CCC3CC4)nn2)cc1` (stereo not shown), the melting point was 174 °C.

Take `OCc1cccc(-c2ccc(-c3cn([C@H]4CN5CCC4CC5)nn3)s2)c1` [Compound 85, (R)-[3-[5-[1-[quinuclidin-3-yl]-1H2,3-triazol-4-yl]-2-thienyl]phenyl]methanol]: the melting point came to 181 °C. The same measure, in the same setting: then `c1cc(-c2cn([C@H]3CN4CCC3CC4)nn2)ccn1` [Compound 50, (R)-3-(4-(Pyridin-4-yl)-1H-1,2,3-triazole-1-yl)quinuclidine], with 150 °C. On the same count and under the same terms, then `Clc1ccc(-c2cccc(-c3cn([C@H]4CN5CCC4CC5)nn3)c2)cn1`, with 80 °C (dec.); and `OCc1ccc(-c2csc(-c3cn([C@H]4CN5CCC4CC5)nn3)c2)cc1` [Compound 86, (R)-[4-[5-[1-[quinuclidin-3-yl]-1H-1,2,3-triazol-4-yl]-3-thienyl]phenyl]methanol], with 196 °C.

The compound `Cl.ClCc1ccc(-c2cn([C@H]3CN4CCC3CC4)nn2)cc1` registered a melting point of 240 °C. As to `Fc1ccc(-c2cn(C3CCCN4CCCCC34)nn2)cc1` (stereo not shown), the melting point is 142 °C. Still for that read-out and setting: under `COC(=O)c1ccc(-c2ccc(-c3cn([C@H]4CN5CCC4CC5)nn3)s2)cc1Cl` stands 200 °C; under `O=[N+]([O-])c1ccc(-c2ccc(-c3cn([C@H]4CN5CCC4CC5)nn3)s2)cn1`, 160 °C; under `Brc1coc(-c2cn([C@H]3CN4CCC3CC4)nn2)c1`, 129 °C. The compound `Fc1ccc(-c2csc(-c3cn([C@H]4CN5CCC4CC5)nn3)c2)cn1` [Compound 88, (R)-3-[4-[4-(6-fluoro-3-pyridyl)-2-thienyl]-1H-1,2,3-triazol-1-yl]quinuclidine] returned a melting point of 136 °C.

In turn, `FCc1cccc(-c2ccc(-c3cn([C@H]4CN5CCC4CC5)nn3)s2)c1` showed a melting point of 144 °C. In the case of `OCc1ccc(-c2cn([C@H]3CN4CCC3CC4)nn2)cc1` [Compound 38, (R)-(4-(1-(Quinuclidin-3-yl)-1H-1,2,3-triazol-4-yl)phenyl)methanol], the melting point worked out at 200 °C.

With `Brc1csc(-c2cn([C@H]3CN4CCC3CC4)nn2)c1`, the melting point came to 106 °C.

One may read the melting point as the temperature, or range, at which the solid turns liquid.
